Measured values reported in patent US20230323369A1, “SCREENING MODEL AND METHOD FOR HBV CCCDNA-TARGETING DRUG” (priority 2020, published 2023).
Structures can show the parent of a compound that is named as a salt.

Columns and labels:
[1] = system: RG-Hibit16 cells; test: CCK8 cytotoxicity in RG-Hibit16 cells; conditions: 1 µM, 4 days
Protocol: (§1) In this example, the reporter model of Example 1 (HepaRG-Hibit16 integrated with Hibit16 constructed based on HepaRG cells) and the reporter model of Example 2 (HepG2-Rccc1a integrated with Rccc1a constructed based on HepG2) were investigated for screening cccDNA inhibitors. These two cells were used to evaluate the potential of 189 drugs to inhibit cccDNA, including clinical drugs for different diseases or drugs in the clinical research stage. The screening work was carried out in a 96-well cell culture plate, RG-Hibit16 cells were plated at a cell density of 15,000/well, and G2-Rcccla cells were plated at a cell density of 35,000/well. RG-Hibit16 cells were treated with drugs 1 week after plating. For RG-Hibit16, different compounds were added for treatment when Dox was added to induce virus expression; the next day after G2-Rccc1a cells were plated, they were firstly infected with adenovirus Adv-Cre to express Cre recombinase protein, and different compounds were added 2 days later for treatment, and all compounds were diluted to 1 µM at the final concentration, 200 µL per well; new medium was replaced every 2 days, the expression of HiBiT in the cell supernatant was detected after 4 days of compound treatment, and CCK8 detection reagent was added at a ratio of 10:1 to detect the cytotoxicity of the compounds.

[2] = system: G2-Rccc1a cells; test: CCK8 cytotoxicity in G2-Rccc1a cells; conditions: 1 µM, 4 days
Protocol: as §1

[3] = system: HBV rcccDNA; test: Compound screening in G2-Rccc1a reporter cells (HiBiT in supernatant, Adv-Cre); assay type: cell-based, hepatitis B virus; conditions: 1 µM, 4 days of compound treatment, among 189 compounds
Protocol: (§2) Detection of HiBiT: Nano Glo HiBiT Extracellular Detection System (Cat. No. N2421) of Promega Corporation was used for HiBiT detection, and the detection steps were carried out according to the kit instructions.
(§3) The reporter model prepared in Example 1 comprised an HBV variant integrated with 3 repeats of HiBiT sequence. The mRNA transcribed directly from the HBV variant as a template lacked the initiation codon for HiBiT expression, and could not translate the protein attached to the HiBiT tag. Only after the pgRNA transcribed from the HBV variant was reversely transcribed to form cccDNA, the mRNA transcribed from cccDNA as a template could translate the protein attached to the HiBiT tag, so the expression level of HiBiT could be used to indicate the formation of HBV cccDNA. In the reporter model prepared in Example 2, the HiBiT sequence was inserted in the middle of the HBV core sequence, the N-terminus sequence and C-terminus sequence of the core were respectively attached to the C-terminus and N-terminus of the HBV replicon, and loxP sequences were ligated to both ends of the HBV replicon, so that in the absence of Cre recombinase expression, the HiBiT tag lacked a promoter and could not be expressed; but with the expression of Cre recombinase, it could mediate the recombination of double-stranded DNA, so that the linear HBV genome DNA formed a closed circular DNA, and after the circular DNA was formed, the HiBiT tag could use the endogenous promoter of HBV to initiate the expression of the protein attached to the HiBiT tag, so the signal of the HiBiT tag could be used to indicate the formation of recombinant HBV cccDNA, i.e., HBV rcccDNA.

[4] = system: HBV; test: HepG2-hNTCP-2B1 HBV infection model; assay type: cell-based, hepatitis B virus; conditions: for effect on intracellular cccDNA: HepG2-hNTCP-2B1, after 8 days of infection
Description: Detection of HBsAg/HBeAg: The detection procedures of hepatitis B surface antigen (chemiluminescence method CLEIA, product standard number: YZB/Guo 0346-2014) and e antigen (enzyme-linked immunosorbent assay ELISA, product standard number: YZB/Guo 0216-2013) were both carried out according to the detection methods of the kits of Beijing Wantai Company.
(§4) Detection of HBV cccDNA: The modified Hirt method was used for HBV cccDNA extraction, with Tiangen Plasmid Mini Kit. The lysis buffers involved were Buffer I (50 mM Tris, 10 mM EDTA, pH 7.5), Buffer II (1.2 % SDS), Buffer III (3 M CsCl, 1 M potassium acetate, 0.67 M acetic acid), which were used to replace P1, P2 and P3 in the Tiangen Plasmid Mini Kit respectively. The extraction steps and methods were performed by referring to the plasmid extraction method of the kit. The instrument used is Roche’s LightCycler® 96. HBV cccDNA and mitochondrial DNA (mtDNA) were quantified respectively, and the relative values of HBV cccDNA and mtDNA were calculated.
We further verified the functions of these 6 compounds in the HepG2-hNTCP-2B1 infection model. HepG2-hNTCP-2B1 was the single clone 2B1 selected for the highest susceptibility to HBV which is made by overexpressing hNTCP in HepG2 cells. In the evaluation by this model, the cells were firstly infected with HBV virus, washed with PBS to remove the residual virus on the next day, different compounds were added after 2 days, and then the cell supernatant was collected and fresh medium was replaced every 2 days, the viral antigen in the cell supernatant was detected, the cells were lysed after 8 days of infection, the intracellular HBV cccDNA was detected, and the evaluation results were shown in FIG. 7. […] The functions of these five compounds were verified in the HepG2-hNTCP-2B1 infection model, and the evaluation strategy was the same as that of the aforementioned inhibitor.

[5] = system: HBV cccDNA; test: Compound screening in RG-Hibit16 reporter cells (HiBiT in supernatant); assay type: cell-based, hepatitis B virus; conditions: 1 µM, 4 days of compound treatment, among 189 compounds
Protocol: as §2, §3

[6] = system: HBV cccDNA; test: HepaRG-Hibit16 reporter cells, evaluation of HBV inhibitors (Doxycycline induction); assay type: cell-based, hepatitis B virus; conditions: for formation of cccDNA: Doxycycline-induced, cell lysate
Protocol: as §2, §4
HepaRG-Hibit16 cells were obtained by transfecting HepaRG cells with Hibit16 plasmid and PiggyBac transposase, integrating the HBV variant sequence (Hibit16) and selection markers into the genome of the cells, and screened by puromycin resistance and red fluorescent marker; Doxycycline could activate TRE3G promoter to initiate the expression of iRFP670, as well as the transcription and replication of HBV, thereby generating HiBiT, as shown in FIG. 4A. To evaluate the function of HBV inhibitors in the cells, the cells were first plated, and Doxycycline was added to induce viral transcription and replication while different HBV inhibitors were added for intervention. The cell supernatant was collected every 2 days, the medium was replaced, and the HiBiT signal, HBsAg, HBeAg in the cell supernatant, and the HBV DNA and HBV cccDNA in the cell lysate were detected, and the responses of the cells to HBV inhibitors were shown in FIGS. 4B-F. Tenofovir (tenofovir disoproxil fumarate, TDF) is a nucleotide reverse transcriptase inhibitor, and Morphothiadin (abbreviation: Mor) is an assembly regulator of core particles, which are already in the clinical Phase II/III evaluation stage, and both can inhibit the formation of cccDNA.

[7] = HepG2-hNTCP-2B1, cell supernatant

| Structure (SMILES) | cytotoxicity (CCK8) [1] | cytotoxicity (CCK8) [2] | expression level of HiBiT (surrogate for HBV rcccDNA) [3] | effect on intracellular cccDNA [4] | effect on HBeAg [4, 7] | expression level of HiBiT (surrogate for HBV cccDNA) [5] | further results |
| --- | --- | --- | --- | --- | --- | --- | --- |
| CCCCCCCCCCCCCCCC[n+]1ccccc1 [Cetylpyridinium] | no obvious cytotoxicity | no obvious cytotoxicity |  |  |  |  |  |
| O=C(O)c1cc(-c2ccccc2)nc2ccccc12 [Cinchophen] |  |  | up-regulated effects | up-regulate | weak promotion effect | up-regulated effects |  |
| Nc1nc(Cl)nc2c1ncn2[C@H]1C[C@H](O)[C@@H](CO)O1 [Cladribine] |  |  | up-regulated effects | up-regulate | weak promotion effect | up-regulated effects | expression level of HBsAg [4, 7]: significantly up-regulate |
| C[C@@H](Oc1cc(-c2cnn(C3CCNCC3)c2)cnc1N)c1c(Cl)ccc(F)c1Cl [Crizotinib] | no obvious cytotoxicity | no obvious cytotoxicity | most significantly inhibited |  |  |  |  |
| O=C1c2c(O)cccc2Cc2cccc(O)c21 [Dithranol] | no obvious cytotoxicity | no obvious cytotoxicity |  |  |  |  |  |
| C[C@H]1O[C@@H](n2cc(F)c(=O)[nH]c2=O)[C@H](O)[C@@H]1O [Doxifluridine] | no obvious cytotoxicity | no obvious cytotoxicity | most significantly inhibited | significant inhibitory effect |  |  |  |
| N=C(N)NC(=O)Cc1c(Cl)cccc1Cl [Guanfacine] | no obvious cytotoxicity | no obvious cytotoxicity |  |  |  | most significantly inhibited |  |
| CN1CCc2c(c3ccccc3n2Cc2ccccc2)C1 [Mebhydrolin] |  |  | up-regulated effects | up-regulate | weak promotion effect | up-regulated effects |  |
| CCOC(=O)C1=C(CN2CCOCC2)NC(c2nccs2)=NC1c1ccc(F)cc1Br (stereo not drawn) [Mor, Morphothiadin] |  |  |  |  |  |  | formation of cccDNA [6]: could inhibit the formation of cccDNA; expression level of HiBiT vs control group ([6]; cell supernatant): significantly lower than that in the control group |
| COc1ccccc1N1CCN(CC(O)COc2cccc3ccccc23)CC1 (stereo not drawn) [Naftopidil] |  |  | up-regulated effects |  | weak promotion effect | up-regulated effects |  |
| CC1(C)CCC(C)(C)c2cc(Cn3cccn3)c(/C=C/c3ccc(C(=O)O)cc3)cc21 [Palovarotene] | no obvious cytotoxicity | no obvious cytotoxicity | most significantly inhibited |  |  | most significantly inhibited | inhibition rate against HBsAg [4, 7]: more than 60%; inhibitory effect on HBsAg [4, 7]: relatively poor; inhibition rate against HBV cccDNA ([4]; HepG2-hNTCP-2B1, intracellular, after 8 days of infection): more than 60% |
| CC(C)OC(=O)OCOP(=O)(CO[C@H](C)Cn1cnc2c(N)ncnc21)OCOC(=O)OC(C)C [TDF, tenofovir disoproxil fumarate] |  |  |  |  |  |  | formation of cccDNA [6]: could inhibit the formation of cccDNA |
| CC[C@]1(O)C[C@H]2CN(CCc3c([nH]c4ccccc34)[C@@](C(=O)OC)(c3cc4c(cc3OC)N(C=O)[C@H]3[C@@](O)(C(=O)OC)[C@H](OC(C)=O)[C@]5(CC)C=CCN6CC[C@]43[C@@H]65)C2)C1 [Vincristine] |  |  | up-regulated effects | up-regulate | weak promotion effect | up-regulated effects | expression level of HBsAg [4, 7]: significantly up-regulate |
